Laboratory results taken from US20240335429A1, “MOLECULAR GLUE AND SALL4 DEGRADER” (National University of Singapore, priority 2021, published 2024).

Tests used:
[1] = target: T1, SALL4B-Nluc in H1299 cells (Homo sapiens, UniProt Q96SW2+Q9UJQ4); test: Dual-luciferase SALL4B reporter cellular assay (main screen), Nluc/Fluc ratio; type: cell-based; conditions: NCI-H1299, read-out: maximum degradation (Dmax) of SALL4B_Nluc
T1 construct: expressed in transfected cells
Source text: (§1) SALL4A or SALL4B was cloned into the dual-luciferase plasmid (pLL3.7-EF1a-IRES-Gateway-nluc-2xHA-IRES2-fluc-hCL1-P2A-Puro from Prof. William G. Kaelin group) to create a stable cell line (H1299, SALL4 negative) that ectopically express the SALL4A or B-NanoLuc fusion protein. SALL4A or B fused to nanoluciferase (Nluc) was expressed in a multicistronic mRNA with control firefly luciferase (Fluc). The measurement of Nluc/Fluc ratio enabled the determination of SALL4 fusion protein degradation relative to the internal Fluc control, independent of effects on transcription (FIG. 1A-B).
The assay was performed as described in Example 1 except in a 1,536-well plate which allows HTS of thermal shift hits from the primary screen, searching for SALL4 small molecule binders that can degrade the oncogenic SALL4B isoform. H1299 cells that stably express SALL4A/B_Nluc_Fluc were seeded in a 1,536-well clear bottom white plate (Corning) at 2,000 cells per well in RPMI medium (6 μL) and grown overnight (16 h) at 37° C., 5% CO2. Cells were treated with 8 μM of compounds for 6 h. Nano-Glo® Dual-Luciferase® Reporter Assay System and Pherastar plate reader were used for measuring the luciferase signal, following the manufacturer's instruction. For data analysis, the Nanoluc luminescence is normalized to firefly luciferase reading and then compared to the DMSO control. The screen was performed in triplicates.
The inventors treated H1299 cells overexpressing SALL4B_Nluc and the HCC (SNU-398, SNU-182) and NSCLC cells (H661) with increasing concentrations of QE-18-WG07 and IMiDs, and assayed the SALL4B_Nluc, as well as the endogenous SALL4A and B levels by immunoblots described in Example 4.

SNU-398 cells = test: CellTiter-Glo viability assay, SNU-398; type: cell-based, human; conditions: CellTiter-Glo
Method: Cells were plated in RPMI culture media (40 μL) in 384-well white, flat-bottom plates (Corning) and incubated at 37° C. in a humidified atmosphere of 5% CO2 overnight. The numbers of cells per well were 1,500 for SNU-398 and SNU-182, 750 for SNU-387, SNU-449, SNU-475 and SNU-423, and 1,000 for H661 and H1299. After overnight incubation, 10 μL of drug (1% DMSO in RPMI) at designed concentrations were added to the cells. The cells were then incubated for 16, 24, 48, 72, or 96 h at 37° C. in a humidified atmosphere of 5% CO2 before CellTiter-Glo reagent (10 μL) was dispensed to the wells. The cells were incubated at room temperature for a minimum of 10 min. After that, luminescence readings were recorded by a Microplate Reader (PHERAstar or Tecan Infinite M200 Pro) according to the manufacturer's instruction for measuring the luminescence.

[2] = target: SALL4A-Nluc in H1299 cells (Homo sapiens, UniProt Q96SW2+Q9UJQ4); conditions: 10 μM, H1299 cells overexpressing SALL4A-nanoluc
SALL4A-Nluc in H1299 cells, sequence (Q96SW2 whole entry): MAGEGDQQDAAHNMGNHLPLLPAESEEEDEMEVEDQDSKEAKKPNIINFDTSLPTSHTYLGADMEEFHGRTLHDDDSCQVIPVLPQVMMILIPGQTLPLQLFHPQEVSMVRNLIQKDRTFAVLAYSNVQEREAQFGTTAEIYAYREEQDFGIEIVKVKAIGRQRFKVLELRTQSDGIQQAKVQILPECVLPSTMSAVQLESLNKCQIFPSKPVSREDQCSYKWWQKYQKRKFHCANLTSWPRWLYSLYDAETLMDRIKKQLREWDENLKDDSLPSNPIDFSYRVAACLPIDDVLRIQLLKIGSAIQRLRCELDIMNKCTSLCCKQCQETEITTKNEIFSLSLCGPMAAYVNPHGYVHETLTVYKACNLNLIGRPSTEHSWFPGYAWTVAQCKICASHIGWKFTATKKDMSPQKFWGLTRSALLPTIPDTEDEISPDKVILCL
SALL4A-Nluc in H1299 cells, sequence (Q16531 whole entry, further chain): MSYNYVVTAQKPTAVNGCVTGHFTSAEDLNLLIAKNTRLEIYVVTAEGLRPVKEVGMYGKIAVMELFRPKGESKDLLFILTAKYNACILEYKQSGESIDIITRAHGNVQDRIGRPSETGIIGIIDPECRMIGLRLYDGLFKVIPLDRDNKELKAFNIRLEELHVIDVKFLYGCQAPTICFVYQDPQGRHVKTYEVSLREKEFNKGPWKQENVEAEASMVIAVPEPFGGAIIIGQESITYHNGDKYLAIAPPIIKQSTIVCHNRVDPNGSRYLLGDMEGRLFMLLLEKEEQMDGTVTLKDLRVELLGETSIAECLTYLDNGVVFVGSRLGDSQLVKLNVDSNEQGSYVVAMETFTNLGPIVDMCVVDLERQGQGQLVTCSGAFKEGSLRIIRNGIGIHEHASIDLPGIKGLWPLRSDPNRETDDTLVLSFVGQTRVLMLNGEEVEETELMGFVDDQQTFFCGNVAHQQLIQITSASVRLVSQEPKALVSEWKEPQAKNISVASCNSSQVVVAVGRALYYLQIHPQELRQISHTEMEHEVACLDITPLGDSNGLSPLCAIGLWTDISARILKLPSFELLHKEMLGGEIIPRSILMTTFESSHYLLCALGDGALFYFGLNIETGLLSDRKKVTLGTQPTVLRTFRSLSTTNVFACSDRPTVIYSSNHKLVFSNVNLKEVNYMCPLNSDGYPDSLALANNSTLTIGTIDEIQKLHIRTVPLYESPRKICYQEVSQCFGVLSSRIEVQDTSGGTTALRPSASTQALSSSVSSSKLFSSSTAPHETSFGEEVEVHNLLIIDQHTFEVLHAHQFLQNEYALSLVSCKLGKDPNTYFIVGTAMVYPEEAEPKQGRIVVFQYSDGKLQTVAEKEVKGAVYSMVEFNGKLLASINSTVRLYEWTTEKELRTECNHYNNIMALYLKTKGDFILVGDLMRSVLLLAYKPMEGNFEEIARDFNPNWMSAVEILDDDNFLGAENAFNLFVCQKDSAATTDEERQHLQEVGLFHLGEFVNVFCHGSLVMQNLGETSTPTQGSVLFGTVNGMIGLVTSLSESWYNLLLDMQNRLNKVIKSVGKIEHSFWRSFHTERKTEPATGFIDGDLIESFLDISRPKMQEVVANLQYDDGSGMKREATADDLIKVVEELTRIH
SALL4A-Nluc in H1299 cells, sequence (Q9UJQ4 whole entry): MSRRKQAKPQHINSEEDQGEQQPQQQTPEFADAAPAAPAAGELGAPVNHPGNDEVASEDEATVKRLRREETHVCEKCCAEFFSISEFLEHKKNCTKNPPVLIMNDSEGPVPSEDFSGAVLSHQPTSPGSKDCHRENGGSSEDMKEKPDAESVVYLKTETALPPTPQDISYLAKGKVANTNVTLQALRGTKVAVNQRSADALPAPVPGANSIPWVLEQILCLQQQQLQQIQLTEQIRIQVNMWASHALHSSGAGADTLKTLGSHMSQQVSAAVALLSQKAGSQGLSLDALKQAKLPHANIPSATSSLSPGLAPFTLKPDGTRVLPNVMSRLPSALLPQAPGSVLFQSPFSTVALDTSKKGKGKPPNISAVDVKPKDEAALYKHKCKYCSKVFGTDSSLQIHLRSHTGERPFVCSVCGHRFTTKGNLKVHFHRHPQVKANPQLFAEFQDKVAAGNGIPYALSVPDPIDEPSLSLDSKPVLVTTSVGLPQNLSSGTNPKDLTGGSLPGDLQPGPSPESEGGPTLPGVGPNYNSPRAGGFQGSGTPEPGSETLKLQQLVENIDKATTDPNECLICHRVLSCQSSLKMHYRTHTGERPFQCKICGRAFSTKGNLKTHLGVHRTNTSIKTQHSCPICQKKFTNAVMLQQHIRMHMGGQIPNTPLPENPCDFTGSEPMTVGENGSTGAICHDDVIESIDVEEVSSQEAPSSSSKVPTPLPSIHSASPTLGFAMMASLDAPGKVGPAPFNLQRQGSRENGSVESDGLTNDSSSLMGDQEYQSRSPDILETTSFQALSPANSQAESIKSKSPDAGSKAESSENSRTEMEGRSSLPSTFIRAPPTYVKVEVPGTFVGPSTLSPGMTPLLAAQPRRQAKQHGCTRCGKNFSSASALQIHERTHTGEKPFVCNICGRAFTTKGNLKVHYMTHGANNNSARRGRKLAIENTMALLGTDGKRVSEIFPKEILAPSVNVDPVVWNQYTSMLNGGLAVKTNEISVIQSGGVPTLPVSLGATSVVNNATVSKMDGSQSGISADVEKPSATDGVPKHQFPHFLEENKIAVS
Source text: as §1

c-myc = test: Immunoblot of c-myc (SALL4 downstream target) in SNU-398 cells; type: cell-based, human; conditions: SNU-398 HCC cells, 24 h
Method: (§2) RIPA buffer containing freshly added protease inhibitors (2 mM PMSF) and protease inhibitor cocktail was used for cell lysis. The lysed cells were incubated for 10 min on ice and subsequently centrifuged at 4° C. for 10 min at 14,000 rpm. The protein concentrations of cell lysates were assessed using Bradford Assay as per manufacturer's instructions. The samples were denatured using 4× Sample buffer at 95° C. for 5 min. The samples were size resolved using polyacrylamide gel (8%) and Mini-PROTEAN Tetra Cell module. The size-resolved proteins were transferred onto PVDF via electroblotting using Mini Trans-Blot® module. The membrane was blocked using 5% BSA in TBST. The membrane was incubated with appropriate primary antibody (overnight) and secondary antibody (1 h). Immobilon Crescendo Western HRP substrate was used for signal development and images were acquired using darkroom development techniques.

IKZF1 = target: T2, IKZF1 (Homo sapiens, UniProt Q13422); test: Immunoblot of IKZF1 in SNU-398 HCC cells; type: cell-based; conditions: SNU-398 cells
T2 construct: with immunoblots in SNU-398 HCC cells; endogenous in cells; host or cells: SNU-398 HCC cells
T2 sequence (Q13422 whole entry): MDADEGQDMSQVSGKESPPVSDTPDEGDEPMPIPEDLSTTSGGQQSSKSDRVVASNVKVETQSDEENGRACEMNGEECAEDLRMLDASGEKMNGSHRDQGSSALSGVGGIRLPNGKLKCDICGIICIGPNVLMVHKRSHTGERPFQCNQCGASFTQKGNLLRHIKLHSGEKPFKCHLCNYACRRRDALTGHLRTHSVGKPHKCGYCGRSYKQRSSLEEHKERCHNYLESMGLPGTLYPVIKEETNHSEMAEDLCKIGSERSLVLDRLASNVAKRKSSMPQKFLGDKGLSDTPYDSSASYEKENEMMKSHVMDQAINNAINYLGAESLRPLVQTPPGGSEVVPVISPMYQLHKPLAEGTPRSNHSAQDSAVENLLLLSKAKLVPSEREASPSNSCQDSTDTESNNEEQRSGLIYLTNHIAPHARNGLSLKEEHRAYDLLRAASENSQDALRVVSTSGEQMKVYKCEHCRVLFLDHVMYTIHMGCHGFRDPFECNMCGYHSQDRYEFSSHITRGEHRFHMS
Method: as §2

cleaved PARP = test: Immunoblot of cleaved PARP (apoptotic marker) in SNU-398 cells; type: cell-based, human; conditions: SNU-398 HCC cells, 24 h
Method: as §2

IKZF3 = target: T3, IKZF3 (Homo sapiens, UniProt Q9UKT9); test: Immunoblot of IKZF3 in SNU-398 HCC cells; type: cell-based; conditions: SNU-398 cells
T3 construct: with immunoblots in SNU-398 HCC cells; endogenous in cells; host or cells: SNU-398 HCC cells
T3 sequence (Q9UKT9 whole entry): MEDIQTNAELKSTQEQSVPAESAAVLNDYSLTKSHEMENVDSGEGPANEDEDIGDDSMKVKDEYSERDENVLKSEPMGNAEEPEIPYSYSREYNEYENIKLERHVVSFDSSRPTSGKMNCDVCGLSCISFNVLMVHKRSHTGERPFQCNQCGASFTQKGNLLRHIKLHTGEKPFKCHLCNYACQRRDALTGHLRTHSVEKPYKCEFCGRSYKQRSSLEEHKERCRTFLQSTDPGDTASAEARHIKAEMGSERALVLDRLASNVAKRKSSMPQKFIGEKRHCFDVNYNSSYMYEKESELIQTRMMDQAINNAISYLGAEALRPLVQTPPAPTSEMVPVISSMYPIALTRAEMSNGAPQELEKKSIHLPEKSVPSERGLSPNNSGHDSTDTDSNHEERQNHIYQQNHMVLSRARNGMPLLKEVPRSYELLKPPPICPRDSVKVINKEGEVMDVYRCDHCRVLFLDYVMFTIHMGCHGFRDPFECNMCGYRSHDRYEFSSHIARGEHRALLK
Method: as §2

T1 sequence (Q9UJQ4 1-616 isoform Q9UJQ4-2): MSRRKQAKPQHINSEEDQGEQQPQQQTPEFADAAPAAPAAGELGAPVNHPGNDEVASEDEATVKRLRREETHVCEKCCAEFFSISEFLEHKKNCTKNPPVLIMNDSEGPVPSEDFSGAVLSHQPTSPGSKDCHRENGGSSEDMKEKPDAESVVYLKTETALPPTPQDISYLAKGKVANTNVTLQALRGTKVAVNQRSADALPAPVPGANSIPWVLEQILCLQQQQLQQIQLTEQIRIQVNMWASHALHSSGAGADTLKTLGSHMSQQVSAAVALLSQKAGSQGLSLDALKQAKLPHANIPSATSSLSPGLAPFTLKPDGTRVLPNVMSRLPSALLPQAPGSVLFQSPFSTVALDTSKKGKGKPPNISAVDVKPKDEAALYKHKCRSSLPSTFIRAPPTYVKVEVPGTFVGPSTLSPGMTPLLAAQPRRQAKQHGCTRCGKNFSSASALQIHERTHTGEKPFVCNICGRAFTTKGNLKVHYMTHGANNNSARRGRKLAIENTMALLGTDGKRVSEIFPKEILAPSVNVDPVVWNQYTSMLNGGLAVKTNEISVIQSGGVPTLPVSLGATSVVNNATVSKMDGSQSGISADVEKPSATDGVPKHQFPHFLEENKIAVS
T1 sequence (Q96SW2 whole entry): as the sequence (Q96SW2 whole entry) above
T1 sequence (Q16531 whole entry partner): as the sequence (Q16531 whole entry, further chain) above

SMILES | Dmax [1] | effect on SNU-398 cell growth (SNU-398 cells) | time at which inhibition of SALL4A-Nluc signal became saturated [2] | effect on the level of c-myc (c-myc) | Dmax (IKZF1) | cleavage of PARP (apoptosis induction) (cleaved PARP) | Dmax (IKZF3)
Nc1cccc2c1C(=O)N(C1CCC(=O)NC1=O)C2=O (stereo not drawn) [Pomalidomide, reference compound] | 17% | did not result in any antiproliferative consequences | 8 h | – | – | – | –
O=C1CCC(N2C(=O)c3ccccc3C2=O)C(=O)N1 (stereo not drawn) [Thalidomide, reference compound] | 17% | did not result in any antiproliferative consequences | – | did not affect | 64% | no cleavage of PARP observed | 39%
